Here are results for 17 molecules from ChEMBL document CHEMBL1156995, “Identification of potent, highly constrained CGRP receptor antagonists” (Bioorg Med Chem Lett, 2010).

The target of data set [1] is T1, Calcitonin gene-related peptide type 1 receptor (Homo sapiens, UniProt O60894+Q16602). Briefly: Antagonist activity at human CLR expressed in human HEK293 cells coexpressing human RAMP1 assessed as Inhibition of CGRP-induced cAMP production in the presence of 50% human serum. Format: functional, cell-based.
T1 sequence (Q16602 whole entry, one chain of several): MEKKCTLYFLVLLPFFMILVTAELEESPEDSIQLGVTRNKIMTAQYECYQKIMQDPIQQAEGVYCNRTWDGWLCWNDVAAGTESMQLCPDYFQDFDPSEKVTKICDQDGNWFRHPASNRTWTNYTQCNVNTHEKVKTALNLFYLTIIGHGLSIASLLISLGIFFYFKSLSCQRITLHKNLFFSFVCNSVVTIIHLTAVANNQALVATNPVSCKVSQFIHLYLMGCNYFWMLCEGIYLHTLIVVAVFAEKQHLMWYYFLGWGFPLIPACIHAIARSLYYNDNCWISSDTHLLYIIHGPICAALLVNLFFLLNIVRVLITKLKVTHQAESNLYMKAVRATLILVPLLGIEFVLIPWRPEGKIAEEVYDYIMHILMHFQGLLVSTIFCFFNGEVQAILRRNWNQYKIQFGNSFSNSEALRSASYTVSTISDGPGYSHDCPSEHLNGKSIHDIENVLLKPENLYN
For data set [2], the target named is T1, Calcitonin gene-related peptide type 1 receptor. Briefly: Antagonist activity at human CLR expressed in human HEK293 cells coexpressing human RAMP1 assessed as Inhibition of CGRP-induced cAMP production. It counts as functional, cell-based.
For data set [3] the target is unchanged. The experiment in a line: Displacement of […] expressed in HEK293 cells coexpressing human RAMP1. Format: cell-based. (Displacement assays read how much labelled ligand stays bound in the presence of the test substance.)
Data set [4] can be described thus: Half life in rat at 2 mg/kg, iv. The note with it: in vivo. It counts as ADME, organism-based. More on the design: dose 2 mg/kg, route intravenous.
Data set [5] is described as follows: Oral bioavailability in rat at 10 mg/kg in presence of lmwitor:tween. It counts as ADME, organism-based. The note with it: in vivo.
The nature of data set [6]: Clearance in rat at 10 mg/kg, po or 2 mg/kg, iv. Format: ADME, organism-based. The note with it: in vivo.
Data set [7] can be described thus: Oral bioavailability in rat at 10 mg/kg in presence of methylcellulose. Format: ADME, organism-based. The note with it: in vivo.
The nature of data set [8]: Half life in rat at 1 mg/kg, iv. Format: ADME, organism-based. The arrangement: dose 1 mg/kg, route intravenous. The note with it: in vivo.
Data set [9] in a line: Oral bioavailability in rat at 5 mg/kg in presence of lmwitor:tween. The note with it: in vivo. Format: ADME, organism-based.
Data set [10] in a line: Clearance in rat at 5 mg/kg, po or 1 mg/kg, iv. Format: ADME, organism-based. The note with it: in vivo.
Data set [11] in a line: Clearance in rhesus monkey at 2 mg/kg, po and 0.5 mg/kg, iv. Format: ADME, organism-based, Macaca mulatta. The note with it: in vivo.
Data set [12] deals with Rhesus monkey. Briefly: Inhibition of capsaicin-induced vasodilation in orally dosed rhesus monkey. Format: functional, organism-based. The note with it: Macaca mulatta.
Data set [13] concerns Rhesus monkey. Briefly: Inhibition of capsaicin-induced vasodilation in orally dosed rhesus monkey at 5.5 uM plasma level. Format: functional, organism-based. The note with it: Macaca mulatta.
A short description of data set [14]: Oral bioavailability in dog at 1 mg/kg in presence of methylcellulose. Format: ADME, organism-based, Canis lupus familiaris. The note with it: in vivo.
The nature of data set [15]: Half life in dog at 0.5 mg/kg, iv. It counts as ADME, organism-based, Canis lupus familiaris. More on the design: dose 0.5 mg/kg, route intravenous. The note with it: in vivo.
Data set [16] is described as follows: Clearance in rat at 10 mg/kg, po and 2 mg/kg, iv. The note with it: in vivo. It counts as ADME, organism-based.
Data set [17] can be described thus: Half life in rhesus monkey at 0.5 mg/kg, iv. Format: ADME, organism-based, Macaca mulatta. More on the design: dose 0.5 mg/kg, route intravenous. The note with it: in vivo.
A short description of data set [18]: Clearance in dog at 1 mg/kg, po and 0.5 mg/kg, iv. It counts as ADME, organism-based, Canis lupus familiaris. The note with it: in vivo.
The nature of data set [19]: Half life in rat at 2mg/kg, iv. Format: ADME, organism-based. The note with it: in vivo.
Data set [20] can be described thus: Oral bioavailability in rhesus monkey at 2 mg/kg in presence of methylcellulose. Format: ADME, organism-based, Macaca mulatta. The note with it: in vivo.
Data set [21] is described as follows: Oral bioavailability in rat at 5 mg/kg in presence of PEG400:water. It counts as ADME, organism-based. The note with it: in vivo.

Active and inactive are the calls of the source.

One may read the IC50 as the concentration that inhibits the measured activity by half. The Ki is the equilibrium dissociation constant of an inhibitor or competing ligand from its target. For the molecule `CN1C(=O)NC(=O)[C@@]12Cc1cc3ccc(Cn4c(=O)n5c6c(cccc64)NC(=O)C5)nc3cc1C2`, the half-inhibitory concentration (IC50) in data set [1] worked out at 14 nM; in data set [2], 1.7 nM. Moreover, the Ki in [3] was 0.3 nM.
Broadly, the half-life is the time needed for the level to fall by half in the phase considered. One may read the bioavailability as dose-corrected exposure relative to a reference, in per cent. The molecule `CCC12CC(=O)Nc3cccc(c31)N(Cc1ccc3cc4c(cc3n1)C[C@@]1(C4)C(=O)Nc3ncccc31)C2` (some centres undefined) had a half-life in data set [4] of 36.6 min. Besides, the IC50 in data set [1] worked out at 1.5 nM; in data set [2], 0.68 nM. In [5], the bioavailability was 9%. In data set [6], the clearance turned out to be 11 mL/min/kg. In addition, the Ki in data set [3] came to 0.072 nM.
For the molecule `O=C1CCc2ccccc2N1Cc1ccc2cc3c(cc2n1)C[C@@]1(C3)C(=O)Nc2ncccc21`, the half-life in data set [4] is 21 min. For the same molecule, the 50% inhibitory concentration (IC50) in [1] was 81 nM; in data set [2], 4.7 nM. Moreover, the bioavailability in [7] came to 3%. Moreover, in data set [6], the clearance worked out at 56 mL/min/kg. For the same molecule, in [3], the Ki was 1.4 nM.
`CN1C(=O)NC(=O)[C@]12Cc1cc(F)c(NC(=O)Cn3c(=O)n(-c4ccccn4)c4ccccc43)cc1C2`: the Ki in data set [3] turned out to be 720 nM.
Same read-out and setting: with `CN1C(=O)NC(=O)C12Cc1cc3ncc(Cn4c(=O)n(-c5ccccn5)c5ccccc54)nc3cc1C2` (centres undefined) the figure was 185 nM.
As for `CC12CC(=O)Nc3cccc(c31)N(Cc1ccc3cc4c(cc3n1)C[C@@]1(C4)C(=O)Nc3ncccc31)C2` (some centres undefined), the half-life in [4] is 37.2 min. Moreover, the results for the IC50 in [1] and in [2] were 1.3 nM and 0.52 nM, respectively. Besides, the bioavailability in [5] came to 6%. The clearance in data set [6] stood at 28 mL/min/kg. Also, in data set [3], the Ki was determined as 0.12 nM.
Consider `CN1C(=O)NC(=O)[C@@]12Cc1cc3ccc(CN4CC5CC(=O)Nc6cccc4c65)nc3cc1C2` (some centres undefined), for which the half-life in data set [4] is 66 min. The IC50 in data set [1] is 43 nM; in data set [2] it was 7.3 nM. In [5], the bioavailability was determined as 41%. The same molecule came in with a clearance in data set [6] of 11 mL/min/kg. For the same molecule, the Ki in [3] is 1.5 nM.
Consider `CCC12CC(=O)Nc3cccc(c31)N(Cc1ccc3cc4c(cc3n1)C[C@@]1(C4)C(=O)NC(=O)N1C)C2` (some centres undefined), for which the half-life in data set [4] was 66 min. For the same molecule, the IC50 turned out to be 44 nM in data set [1] and 7.2 nM in data set [2]. Besides, the bioavailability in [7] turned out to be 65%. Also, the clearance in [6] stood at 44 mL/min/kg. Moreover, the Ki in data set [3] is 1.3 nM.
`O=C1CC2CN(Cc3ccc4cc5c(cc4n3)C[C@@]3(C5)C(=O)Nc4ncccc43)c3cccc(c32)N1` (some centres undefined) had a half-life in [8] of 19.2 min. Also, the values for the IC50 in [1] and in data set [2] were 4.1 nM and 0.86 nM, respectively. In data set [9], the bioavailability turned out to be 8%. In addition, the clearance in data set [10] worked out at 19 mL/min/kg. For the same molecule, the Ki in data set [3] was 0.55 nM.
In the case of `CN1C(=O)NC(=O)[C@@]12Cc1cc3nc(Cn4c(=O)n(-c5ccccn5)c5ccccc54)oc3cc1C2`, in [3], the Ki came out at 6000 nM.
Regarding `CN1C(=O)NC(=O)[C@@]12Cc1cc3ccc(CN4C(=O)CCc5ccccc54)nc3cc1C2`, the half-life in data set [4] is 42 min. The figures for the IC50 in [1] and in [2] were 850 nM and 50 nM, respectively. In [7], the bioavailability came to 10%. For the same molecule, the clearance in [6] was determined as 38 mL/min/kg. Besides, in data set [3], the inhibitory constant (Ki) was 8.9 nM.
For the molecule `CN1C(=O)NC(=O)[C@]12Cc1ccc(NC(=O)Cn3c(=O)n(-c4ccccn4)c4ccccc43)c(F)c1C2`, the Ki in data set [3] worked out at 55 nM.
As for `CN1C(=O)Cn2c(=O)n(Cc3ccc4cc5c(cc4n3)C[C@@]3(C5)C(=O)NC(=O)N3C)c3cccc1c32`, the IC50 in data set [1] is 1200 nM; in data set [2], 33 nM. For the same molecule, in data set [3], the Ki amounted to 3 nM.
As for `CN1C(=O)NC(=O)[C@]12Cc1cc3ccc(Cn4c(=O)n(-c5ccccn5)c5ccccc54)nc3cc1C2`, in [3], the Ki is 17 nM.
By EC90 is commonly meant the concentration at which the effect reaches the 90% level. Turning to `CN1C(=O)NC(=O)[C@@]12Cc1cc3ccc(CN4CC5(C)CC(=O)Nc6cccc4c65)nc3cc1C2` (some centres undefined), the clearance amounted to 5.6 mL/min/kg in [11], 14 mL/min/kg in data set [16], 14 mL/min/kg in data set [6] and 1.6 mL/min/kg in data set [18]. In addition, the 90% effect level with Rhesus monkey [12] (EC90) was put at 5.5 µM. For the same molecule, the half-life in data set [4] is 96 min; in data set [15], 366 min; in [17], 102 min; in data set [19], 96 min. Further, the IC50 came out at 6.5 nM in [1] and 2.2 nM in [2]. In addition, the bioavailability worked out at 45% in [7], 59% in data set [14], 34% in data set [5] and 38% in [20]. Besides, the inhibition entry in the data set with Rhesus monkey [13] was “Active”. For the same molecule, in [3], the Ki was found to be 0.52 nM.
Take `CN1C(=O)Cn2c(=O)n(Cc3ccc4cc5c(cc4n3)C[C@@]3(C5)C(=O)Nc4ncccc43)c3cccc1c32`: the IC50 in [1] came out at 95 nM; in data set [2], 1.2 nM. For the same molecule, the Ki in [3] is 0.41 nM.
The molecule `O=C1Cn2c(=O)n(Cc3ccc4cc5c(cc4n3)C[C@@]3(C5)C(=O)Nc4ncccc43)c3cccc(c32)N1` had a half-life in [8] of 27 min. Moreover, the IC50 was found to be 2.5 nM in [1] and 0.077 nM in data set [2]. For the same molecule, in data set [21], the bioavailability is 0%. The clearance in [10] was found to be 40 mL/min/kg. The Ki in data set [3] was 0.023 nM.
